In PMC12195740, “Discovery of Novel Imidazothiazole-Based Hydroxamic Acid Derivatives as Potent Indoleamine 2,3-Dioxygenase 1 and Histone Deacetylase 6 Dual Inhibitors” (Molecules, 2025):

Legend:
HCT-116 cells = experiment: Cell cycle analysis (PI, flow cytometry); assay type: cell-based; conditions: 24 h, control 7.77%
Experimental: To assess the impact of compound 10e on the cell cycle, HCT-116 cells were treated with different concentrations of compound 10e (5 μM, 10 μM, and 20 μM) for 24 h, then stained with PI, and analyzed using flow cytometry.
Cell Bank at the Chinese Academy of Sciences. Hct-116, SW480, MDA-MB-231 and MCF-7 cell […]
FBS. DMEM and FBS were obtained from Gibco-Thermo (BRL Co. Ltd., USA). The plates were incubated at 37 °C in a humidified atmosphere of 5% CO2/95% air overnight. The cells were then […]
another 48 h. The cells were stained with 10 μl of MTT at incubator for approximately 4 h. The medium was discarded and replaced by […] DMSO. The O.D. value was read at 570/630 nm with a spectrophotometer.
Section S 1.4 Molecular docking
Molecular docking was carried out in Sybyl-X 2.1 on a Windows workstation. The crystal structure of IDO1 protein with inhibitor was retrieved from the RCSB Protein Data Bank (IDO1:
4PK5, HDAC6: 6THV). Firstly, the 3D structure of the selected compound was built with Sybyl-X 2.1 sketch followed by energy minimization with the MMFF94 force field and Gasteiger-Marsili charges. The Powell’s method was used to optimize the geometry with a distance dependent dielectric constant and a termination energy gradient of 0.005 kcal/mol. […]
with 75% cold ethanol at 4 °C overnight. […] The samples were measured using flow cytometry and analyzed by Flowjo software. […]
Total cell lysates from cultured HCT-116 cells after treatment with compound 10e as mentioned earlier were obtained by lysing the cells in ice-cold RIPA buffer with protease and phosphatase inhibitor and stored at -20°C for future use. The protein concentrations were quantified by the Bradford method (Bio-Rad) using a Multimode Varioscan instrument (Thermo Fischer Scientific).
Equal amounts of protein per lane were applied to 12% SDS polyacrylamide gel for electrophoresis and transferred to a polyvinylidene difluoride (PVDF) membrane (Amersham Biosciences). […] Membranes were washed with TBST three times for 15 min and the protein bands were detected with chemiluminescence reagent (Thermo Fischer Scientific). […]

CT26 tumors = experiment: In vivo antitumor efficacy, CT26 tumor-bearing BALB/c mice; conditions: 150 mg/kg ip every 3 days for 21 days
Experimental: (§1) After that, fixed cells were washed with PBS. Then, cells were isolated by centrifugation and stained with propidium iodide (KeyGEN BioTECH, China) for 30 min. The samples were measured using flow cytometry and analyzed by Flowjo software.
(§2) Section S 1.6 Western blot assay […]
(§3) earlier were obtained by lysing the cells in ice-cold RIPA buffer with protease and phosphatase inhibitor and stored at -20°C for future use. The protein concentrations were quantified by the Bradford method (Bio-Rad) using a Multimode Varioscan instrument (Thermo Fischer Scientific). […]
(§4) and transferred to a polyvinylidene difluoride (PVDF) membrane (Amersham Biosciences). After the membrane was blocked at room temperature for 2 h in blocking solution, primary antibody was added and incubated at 4°C overnight. Ac-α-tubulin, Ac-histone H3 and GAPDH antibodies were purchased from Imgenex, USA. After three TBST washes, the membrane was incubated with corresponding horseradish peroxidase-labeled secondary antibody (1:2,000) (Santa Cruz) at room temperature for 1 h. Membranes were washed with TBST three times for 15 min and the protein bands were detected with chemiluminescence reagent (Thermo Fischer Scientific). The X-ray films were developed using developer and fixed with fixer solution.
(§5) Section S 1.7 In vivo antitumor efficacy […]
line CT-26 in BALB/c mice as described previously. […]

SW480 cells = experiment: Cell viability (MTT) assay, SW480; conditions: Homo sapiens, SW480, 48 h, read-out: Antiproliferative IC50, SW480
Experimental: Section S 1.3 Cell viability assays
another 48 h. The cells were stained with 10 μl of MTT at incubator for approximately 4 h. The medium was discarded and replaced by 100 mL DMSO. The O.D. value was read at 570/630 nm with a spectrophotometer.

[1] = General toxicity in CT26 tumor-bearing BALB/c mice (body weight, H&E of organs); assay type: in vivo; conditions: 150 mg/kg ip every 3 days for 21 days
Experimental: as §1, §2, §3, §4, §5
line CT-26 in BALB/c mice as described previously. Five-week-old male BALB/c mice were purchased from the Shanghai Ling Chang biotechnology company (China), and tumors were induced through subcutaneous injection of 1 × 10^7 cells in 100 µL of sterile PBS into the dorsal region. The animals were divided into four groups, starting on the second day. When the tumors reached a volume of 50−100 mm3 in all mice, the first group was administered intraperitoneally with an equivalent volume of 5% dextrose as the vehicle control. The second group was treated with […]
treated with complex 10e at doses of 150 mg/kg body weight once every 3 days for 3 weeks, respectively. All compounds were dissolved in vehicle. Tumor volumes and body weights were […]

## O=C(CCCCCCNc1ccc(NC(=O)c2cnc3scc(-c4ccc(Br)cc4)n23)cc1)NO [Compound 10e, 3-(4-Bromophenyl)-N-{4-[(7-(hydroxyamino)-7-oxoheptyl)amino]phenyl}imidazo[2,1-b]thiazole-5-carboxamide]
HCT-116 cells; HCT-116, 5 μM
  cell population in G2/M phase: 17.39%
HCT-116 cells; HCT-116, 10 μM
  cell population in G2/M phase: 31.89%
HCT-116 cells; HCT-116, 20 μM
  cell population in G2/M phase: 47.18%
CT26 tumors
  relative tumor volume growth rate (T/C): 38.32%
  tumor growth inhibition (TGI): 60.2%
SW480 cells
  IC50: 23.4 ± 3.86 µM
[1]
  histology of liver, spleen, and kidney (H&E staining): no obvious histological differences
[1]; versus vehicle group
  influence on body weight of the mice: no obvious influence
